9 compounds from patent US12492202B2, “Macrocyclic PAD4 inhibitors useful as immunosuppressant” (BRISTOL-MYERS SQUIBB COMPANY, priority 2020, dated 2025) can be followed below.

Chain of human PAD4 (hPAD4) (Q9UM07 whole entry): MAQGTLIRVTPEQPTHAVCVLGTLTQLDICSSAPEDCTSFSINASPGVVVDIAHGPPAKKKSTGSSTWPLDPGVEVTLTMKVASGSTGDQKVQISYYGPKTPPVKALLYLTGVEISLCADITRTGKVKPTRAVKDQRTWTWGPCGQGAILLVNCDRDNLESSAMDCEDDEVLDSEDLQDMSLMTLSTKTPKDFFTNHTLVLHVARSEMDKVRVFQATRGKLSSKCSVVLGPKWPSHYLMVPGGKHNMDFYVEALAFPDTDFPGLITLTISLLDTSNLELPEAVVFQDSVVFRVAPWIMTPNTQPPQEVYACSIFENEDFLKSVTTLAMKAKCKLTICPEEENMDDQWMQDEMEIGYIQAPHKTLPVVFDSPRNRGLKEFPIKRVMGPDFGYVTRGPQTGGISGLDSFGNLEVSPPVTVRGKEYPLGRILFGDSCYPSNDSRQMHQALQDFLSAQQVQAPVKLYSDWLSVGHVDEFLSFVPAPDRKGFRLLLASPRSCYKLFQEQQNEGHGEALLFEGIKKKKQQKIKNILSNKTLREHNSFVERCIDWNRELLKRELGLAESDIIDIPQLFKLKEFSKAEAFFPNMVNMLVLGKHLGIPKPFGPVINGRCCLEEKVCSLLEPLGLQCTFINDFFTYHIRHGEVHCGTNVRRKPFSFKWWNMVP

The experiment has as its target human PAD4 (hPAD4) (Homo sapiens (Human), UniProt Q9UM07). Description: RFMS Human PAD4 Functional Assay. It is filed as biochemical. Particulars: rapid-fire mass spectrum (RFMS) assay; 5 nM hPAD4 enzyme, 250 μM BAEE, 30 min preincubation at 37° C.
Experimental: RFMS Human PAD4 Functional Assay: Compounds were solubilized in 100% DMSO to achieve a 10 mM compound concentration. Compound stock solutions were stored at RT. A series of dilutions were prepared in DMSO and mixed 8 times with 20 μL mixing volume. Final top concentration of compound in the assay is 50 μM. Final assay conditions were as follows: • Reaction volume: 26 μl • Assay buffer: 25 mM hepes, pH 7.5, 5 mM NaCl, 1 mM DTT, 0.2 mg/ml BSA, 0.01% CHAPS, 50 μM Calcium, and 5 μM TPEN • Final concentrations: 5 nM hPAD4 enzyme, 250 μM BAEE, and 0.5% DMSO • Total incubation time: 30 mins compound and enzyme preincubation at 37° C., 90 min enzyme/substrate reaction, 30 min reaction with phenyl glyoxal at 37° C. • Stop solution: 40 μl 5% TCA in ACN 0.13 μL of compound solution was added to 13 μL of 10 nM PAD4 in assay buffer. After 30 min 13 μl of 500 μM of BAEE was added in 25 mM hepes, pH 7.5, 5 mM NaCl, 1 mM DTT, 0.2 mg/ml BSA, 0.01% CHAPS, 50 μM Calcium, 5 μM TPEN was added and the reaction incubated for 90 min at 37° C. The enzymatic reaction was quenched by addition of 15 μl of 6.1N TCA, 100% Final Concentration is 20%, 35 μl of 8.5 mM phenyl glyoxal (final concentration 4 mM) is then added and the reaction is incubated for 30 min at 37° C. After 30 minutes the plates are spun down to remove all precipitate. The enzyme reaction was quenched with an equal volume of methanol containing internal standard (modified citrulline). Samples were loaded onto the Rapid Fire RF300 system (Agilent) wherein they were first sipped for 1000 ms and then directly loaded to a C18 separations cartridge using a mixture of acetonitrile containing 0.01% formic acid for 3000 ms desalting. The flow rate of the mobile phase was 1.5 ml/min. Once the samples were eluted from the cartridge, a mobile phase of acetonitrile containing 0.01% formic acid was used to move the samples into the mass spectrometer for 4000 ms at a flow rate of 1.25 ml/min/Sciex API5500 triple quadrupole mass spectrometer (Applied Biosystems) equipped with ESI was used to analyze the peptidyl citrulline and internal standard ions. MRM transition of product and internal standard were monitored at m/z 424.5 to 350.4 and m/z 293 to 247 respectively. The dwell time for each transition was set at 200 ms, and the ESI voltage was used at 5500 with a source temperature of 400° C. Extracted ion peaks for each transition were integrated using the Rapid Fire Integrator software. Peak area of analyte was normalized with internal standard).
Consider `COc1cc(C(=O)N2CC3CCC2[C@@H]3N)cc2nc3n(c12)Cc1ccn(n1)-c1ccccc1OCCCn1c-3cc2ccccc21` (stereo partly drawn) [Example 19, ((7R)-7-amino-2-azabicyclo[2.2.1]heptan-2-yl)((E)-2^7-methoxy-1^1H,2^1H,4^1H-6-oxa-2(2,1)-benzo[d]imidazola-1(2,1)-indola-4(3,1)-pyrazola-5(1,2)-benzenacyclononaphane-2^5-yl)methanone], for which the IC50 – broadly, the point on the concentration scale where inhibition reaches its midpoint – worked out at 5 nM. The compound `COc1cc(C(=O)N2C[C@H](N)C[C@@H](F)C2)cc2nc3n(c12)Cc1ccn(n1)-c1ccccc1OCCCn1c-3cc2ccccc21` [Example 20, ((3R,5R)-3-amino-5-fluoropiperidin-1-yl)((E)-2^7-methoxy-1^1H,2^1H,4^1H-6-oxa-2(2,1)-benzo[d]imidazola-l(2,1)-indola-4(3,1)-pyrazola-5(1,2)-benzenacyclononaphane-2^5-yl)methanone] came in with an IC50 of 13 nM. Consider `COc1cc(C(=O)N2C[C@H](N)C[C@@H](F)C2)cc2nc3n(c12)Cc1cccc(c1)-c1ccccc1CCCCn1c-3cc2ccccc21` [Example 21, ((3R,5R)-3-amino-5-fluoropiperidin-1l-yl)(2^7-methoxy-1^1IH,2^1H-2(2,1)-benzo[d]imidazola-1(2,1)-indola-4(1,3),5(1,2)-dibenzenacyclononaphane-2^5-yl)methanone], for which the IC50 was 191 nM. Under `COc1cc(C(=O)N2CC3CCC2[C@@H]3N)cc2nc3n(c12)Cc1cccc(c1)-c1ccccc1CCCCn1c-3cc2ccccc21` (stereo partly drawn) [Example 22, ((1R,4R,7R)-7-amino-2-azabicyclo[2.2.1]heptan-2-yl)(2^7-methoxy-1^1H,2^1H-2(2,1)-benzo[d]imidazola-1(2,1)-indola-4(1,3),5(1,2)-dibenzenacyclononaphane-2^5-yl)methanone] stands 53 nM; under `COc1cc(C(=O)N2C[C@H](N)C[C@@H](F)C2)cc2nc3n(c12)Cc1cccc(c1)-c1ccccc1CCCCn1c-3cc2cccnc21` [Example 23, ((3R,5R)-3-amino-5-fluoropiperidin-1-yl)(2^7-methoxy-1^1H,2^1H,2(2,1)-dipyrrolo[2,3-b]pyridina-4(1,3),5(1,2)-dibenzenacyclononaphane-2^5-yl)methanone], 109 nM; under `COc1cc(C(=O)N2C[C@H](N)C[C@@H](F)C2)cc2nc3n(c12)Cc1cc(F)cc(c1)-c1ccccc1CCCCn1c-3cc2cccnc21` [Example 25, ((3R,5R)-3-amino-5-fluoropiperidin-1-yl)(4^5-fluoro-2^7-methoxy-1^1H,2^1H-1,2(2,1)-dipyrrolo[2,3-b]pyridina-4(1,3),5(1,2)-dibenzenacyclononaphane-2^5-yl)methanone], 31 nM. As for `COc1cc(C(=O)N2C[C@H](N)C[C@@H](F)C2)cc2nc3n(c12)Cc1cc(C#N)cc(c1)-c1ccccc1CCCCn1c-3cc2cccnc21` [Example 26, 2^5-((3R,5R)-3-amino-5-fluoropiperidine-1 carbonyl)-2^7-methoxy-1^1H,2^1H-1,2(2,1)-dipyrrolo[2,3-b]pyridina-4(1,3),5(1,2)-dibenzenacyclononaphane-4^5-carbonitrile], the figure is 21 nM.

Compound `COc1cc(C(=O)N2CC3CCC2[C@@H]3N)cc2nc3n(c12)Cc1cc(C#N)cc(c1)-c1ccccc1CCCCn1c-3cc2cccnc21` (stereo partly drawn) [Example 27, 2^5-((1R,4R,7R)-7-amino-2-azabicyclo[2.2.1]heptane-2-carbonyl)-2^7-methoxy-1^1H,2^1H-1,2(2,1)-dipyrrolo[2,3-b]pyridina-4(1,3),5(1,2)-dibenzenacyclononaphane-4^5-carbonitrile] gave an IC50 of 49 nM. The compound `COc1cc(C(=O)N2C[C@H](N)C[C@@H](F)C2)cc2nc3n(c12)Cc1cc(C(N)=O)cc(c1)-c1ccccc1CCCCn1c-3cc2cccnc21` [Example 28, 2^5-((3R,5R)-3-amino-5-fluoropiperidine-1-carbonyl)-2^7-methoxy-1^1H,2^1H-1,2(2,1)-dipyrrolo[2,3-b]pyridina-4(1,3),5(1,2)-dibenzenacyclononaphane-4^5-carboxamide] had an IC50 of 62 nM.
